Data published in US8030298B2, “17β-HSD1 and STS inhibitors” (Abbott Products GmbH, priority 2005, dated 2011).

Biological target: T1, recombinant human 17β-hydroxysteroid dehydrogenase type 1 (Homo sapiens, UniProt P14061)
T1 construct: made in house; host or cells: Sf9 insect cells (baculovirus, Bac to Bac Expression System)
T1 sequence (P14061 1-328): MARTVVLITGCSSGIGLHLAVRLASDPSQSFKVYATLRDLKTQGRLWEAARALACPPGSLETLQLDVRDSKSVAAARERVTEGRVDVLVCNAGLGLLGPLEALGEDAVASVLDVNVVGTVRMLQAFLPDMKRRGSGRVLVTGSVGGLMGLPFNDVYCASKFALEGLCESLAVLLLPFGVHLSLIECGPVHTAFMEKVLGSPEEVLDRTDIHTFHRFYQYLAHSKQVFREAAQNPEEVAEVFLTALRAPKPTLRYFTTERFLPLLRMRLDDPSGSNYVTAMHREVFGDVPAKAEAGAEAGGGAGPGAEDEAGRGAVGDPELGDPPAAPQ
Assay: Inhibition of recombinant human 17β-hydroxysteroid dehydrogenase type 1 (3H-estrone to estradiol conversion, HPLC)
Assay type: biochemical
Settings: read-out: Inhibition of rec. 17β-HSD1 (% inhibition); for inhibition at 0.1 µM: inhibitor concentration 100 nM; for inhibition at 1 µM: 0.5 h, inhibitor concentration 1 μm
Description: 17β-HSD1 purification: Recombinant baculovirus was generated by the “Bac to Bac Expression System” (Invitrogen). Recombinant bacmid was transfected to Sf9 insect cells using “Cellfectin Reagent” (Invitrogen). 60 h later cells were harvested; the microsomal fraction was isolated as described by Puranen et al. (1994). Aliquots were stored frozen until determination of enzymatic activity.
Assay—Inhibition of recombinant human 17β-hydroxysteroid dehydrogenase type 1: Recombinant protein (0.1 μg/ml) was incubated in 20 mM KH2PO4 pH 7.4 with 30 nM 3H-estrone and 1 mM NADPH for 30 min at RT, in the presence of potential inhibitors at concentrations of 1 μM or 0.1 μM. Inhibitor stock solutions were prepared in DMSO. Final concentration of DMSO was adjusted to 1% in all samples. The enzyme reaction was stopped by addition of 10% trichloroacetic acid (final concentration). Samples were centrifuged in a microtiter plate at 4000 rpm for 10 min. Supernatants were applied to reverse phase HPLC on a Waters Symmetry C18 column, equipped with a Waters Sentry Guard column. Isocratic HPLC runs were performed at RT at a flow rate of 1 ml/min of acetonitrile:water 48:52 as running solvent. Radioactivity was monitored in the eluate by a Packard Flow Scintillation Analyzer. Total radioactivity for estrone and estradiol were determined in each sample and percent conversion of estrone to estradiol was calculated according to the following formula:
Percent inhibition was calculated as follows: % inhibition=100−% conversion

| Compound | inhibition at 0.1 µM | inhibition at 1 µM |
| --- | --- | --- |
| C[C@]12CC[C@@H]3c4ccc(OCc5ccccc5)cc4CC[C@H]3[C@@H]1[C@H](C/C=C/C(=O)N1CCOCC1)c1cnoc12 [161′] | 21% | – |
| CCCc1cc2c(cc1O)CC[C@H]1[C@@H]3[C@H](CCCC(=O)NCc4ccc5c(c4)OCO5)CC(=O)[C@@]3(C)CC[C@H]21 [Compound 30] | 39.8% | – |
| CCCc1cc2c(cc1O)CC[C@H]1[C@@H]3[C@H](CCCC(=O)NCc4cccnc4)CC(=O)[C@@]3(C)CC[C@H]21 [Compound 32] | 50% | – |
| CCCc1cc2c(cc1O)CC[C@H]1[C@@H]3[C@H](CCCC(=O)NCCc4c[nH]c5c(C)cccc45)CC(=O)[C@@]3(C)CC[C@H]21 [Compound 34] | 68.8% | – |
| CCCc1cc2c(cc1O)CC[C@H]1[C@@H]3[C@H](CCCC(=O)N4CCCCC4)CC(=O)[C@@]3(C)CC[C@H]21 [Compound 36] | 56.9% | – |
| CCCc1cc2c(cc1O)CC[C@H]1[C@@H]3[C@H](CCCC(=O)N(C)Cc4ccccc4)CC(=O)[C@@]3(C)CC[C@H]21 [Compound 37] | 64% | – |
| CCCc1cc2c(cc1O)CC[C@H]1[C@@H]3[C@H](CCCC(=O)N(C)CCc4ccc(OC)c(OC)c4)CC(=O)[C@@]3(C)CC[C@H]21 [Compound 38] | 51% | – |
| CCCc1cc2c(cc1O)CC[C@H]1[C@@H]3[C@H](CCCC(=O)Nc4ccc5cn[nH]c5c4)CC(=O)[C@@]3(C)CC[C@H]21 [Compound 40] | 72% | – |
| CCCc1cc2c(cc1O)CC[C@H]1[C@@H]3[C@H](CCCC(=O)NCCOC)CC(=O)[C@@]3(C)CC[C@H]21 [Compound 41] | 25.9% | – |
| CCCc1cc2c(cc1O)CC[C@H]1[C@@H]3[C@H](CCCC(=O)NCc4ccc(F)cc4F)CC(=O)[C@@]3(C)CC[C@H]21 [Compound 42] | 53.3% | – |
| CCOc1cc2c(cc1O)CC[C@H]1[C@@H]3[C@@H](CCCC(=O)NC4CCCCC4)CC(=O)[C@@]3(C)CC[C@H]21 [Compound 44] | 55.5% | – |
| CCOc1cc2c(cc1O)CC[C@H]1[C@@H]3[C@@H](CCCC(=O)NCc4ccc5c(c4)OCO5)CC(=O)[C@@]3(C)CC[C@H]21 [Compound 45] | 54% | – |
| CCOc1cc2c(cc1O)CC[C@H]1[C@@H]3[C@@H](CCCC(=O)NCCc4c[nH]c5c(C)cccc45)CC(=O)[C@@]3(C)CC[C@H]21 [Compound 52] | 50% | 72.2% |
| CCOc1cc2c(cc1O)CC[C@H]1[C@@H]3[C@@H](CCCC(=O)N4CCCCC4)CC(=O)[C@@]3(C)CC[C@H]21 [Compound 55] | 42.6% | 71.9% |
| CCOc1cc2c(cc1O)CC[C@H]1[C@@H]3[C@@H](CCCC(=O)Nc4ccc5cn[nH]c5c4)CC(=O)[C@@]3(C)CC[C@H]21 [Compound 59] | 56.1% | 69.7% |
| COc1cc2c(cc1O)CC[C@H]1[C@@H]3[C@@H](CCCC(=O)NC4CCCCC4)CC(=O)[C@@]3(C)CC[C@H]21 [Compound 67] | 42.5% | 73.2% |
| COc1cc2c(cc1O)CC[C@H]1[C@@H]3[C@@H](CCCC(=O)NCc4ccccc4)CC(=O)[C@@]3(C)CC[C@H]21 [Compound 71] | 45.8% | 70.6% |
| COc1cc2c(cc1O)CC[C@H]1[C@@H]3[C@@H](CCCC(=O)N4CCCCC4)CC(=O)[C@H]3CC[C@H]21 [Compound 78] | 40.6% | 72% |

| Compound | inhibition at 0.1 µM | inhibition at 1 µM |
| --- | --- | --- |
| COc1cc2c(cc1O)CC[C@H]1[C@@H]3[C@@H](CCCC(=O)Nc4ccc5cn[nH]c5c4)CC(=O)[C@@]3(C)CC[C@H]21 [Compound 83] | 53.9% | 71.6% |
| C[C@]12CC[C@@H]3c4ccc(O)cc4CC[C@H]3[C@@H]1[C@@H](CCCC(=O)NC1CCCCC1)CC2(F)F [Compound 102] | 41.6% | 70.6% |
| C[C@]12CC[C@@H]3c4ccc(O)cc4CC[C@H]3[C@@H]1[C@@H](CCCC(=O)NCc1ccccc1)CC2(F)F [Compound 106] | 36.7% | 68% |
| C[C@]12CC[C@@H]3c4ccc(O)cc4CC[C@H]3[C@@H]1[C@@H](CCCC(=O)NCc1ccc(O)c(O)c1)CC2(F)F [Compound 109] | 35.1% | 70.7% |
| Cc1cccc2c(CCNC(=O)CCC[C@H]3CC(F)(F)[C@@]4(C)CC[C@@H]5c6ccc(O)cc6CC[C@H]5[C@H]34)c[nH]c12 [Compound 111] | 50.6% | 68.3% |
| C[C@]12CC[C@@H]3c4ccc(O)cc4CC[C@H]3[C@@H]1[C@@H](CCCC(=O)N1CCCCC1)CC2(F)F [Compound 113] | 47.2% | 76.9% |
| COc1ccc(CCN(C)C(=O)CCC[C@H]2CC(F)(F)[C@@]3(C)CC[C@@H]4c5ccc(O)cc5CC[C@H]4[C@H]23)cc1OC [Compound 116] | 49.3% | – |
| C[C@]12CC[C@@H]3c4ccc(O)cc4CC[C@H]3[C@@H]1[C@H](CCC(=O)NC1CC1)CC2(F)F [Compound 120] | 37.3% | – |
| C[C@]12CC[C@@H]3c4ccc(O)cc4CC[C@H]3[C@@H]1[C@H](CCC(=O)NC1CCCCC1)CC2(F)F [Compound 121] | 63.6% | – |
| C[C@]12CC[C@@H]3c4ccc(O)cc4CC[C@H]3[C@@H]1[C@H](CCC(=O)NCc1ccc3c(c1)OCO3)CC2(F)F [Compound 122] | 34% | – |
| C[C@]12CC[C@@H]3c4ccc(O)cc4CC[C@H]3[C@@H]1[C@H](CCC(=O)NCc1ccccc1)CC2(F)F [Compound 125] | 29.2% | – |
| C[C@]12CC[C@@H]3c4ccc(O)cc4CC[C@H]3[C@@H]1[C@H](CCC(=O)NCc1ccc(O)c(O)c1)CC2(F)F [Compound 127] | 21.1% | – |
| COc1cc(CNC(=O)CC[C@@H]2CC(F)(F)[C@@]3(C)CC[C@@H]4c5ccc(O)cc5CC[C@H]4[C@H]23)cc(OC)c1 [Compound 128] | 21.2% | – |
| Cc1cccc2c(CCNC(=O)CC[C@@H]3CC(F)(F)[C@@]4(C)CC[C@@H]5c6ccc(O)cc6CC[C@H]5[C@H]34)c[nH]c12 [Compound 129] | 33.1% | – |
| C[C@]12CC[C@@H]3c4ccc(O)cc4CC[C@H]3[C@@H]1[C@H](CCC(=O)N1CCCCC1)CC2(F)F [Compound 131] | 19.8% | – |
| CCN(CC)C(=O)CC[C@@H]1CC(F)(F)[C@@]2(C)CC[C@@H]3c4ccc(O)cc4CC[C@H]3[C@H]12 [Compound 133] | 71.4% | – |
| COc1ccc(CCN(C)C(=O)CC[C@@H]2CC(F)(F)[C@@]3(C)CC[C@@H]4c5ccc(O)cc5CC[C@H]4[C@H]23)cc1OC [Compound 134] | 50.5% | – |
| CCCc1cc2c(cc1O)CC[C@H]1[C@@H]3[C@H](CCCC(=O)NCc4ccccc4)CC(=O)[C@@]3(C)CC[C@H]21 [Example 2, N-Benzyl-4-(3-hydroxy-17-oxo-2-propyl-estra-1,3,5(10)-trien-15β-yl)-butyramide] | 54.8% | – |
